The results in this text go back to PMC11681614, “A crucial active site network of titratable residues guides catalysis and NAD ^+ binding in human succinic semialdehyde dehydrogenase” (Protein Science : A Publication of the Protein Society, 2024).

Series [1] has as its target T1, hSSADH (human succinic semialdehyde dehydrogenase) (Homo sapiens, UniProt P51649).
T1 construct: gene ALDH5A1; purified recombinant homotetramer, expressed and purified as in Didiasova et al. 2024
T1 sequence (P51649 48-535): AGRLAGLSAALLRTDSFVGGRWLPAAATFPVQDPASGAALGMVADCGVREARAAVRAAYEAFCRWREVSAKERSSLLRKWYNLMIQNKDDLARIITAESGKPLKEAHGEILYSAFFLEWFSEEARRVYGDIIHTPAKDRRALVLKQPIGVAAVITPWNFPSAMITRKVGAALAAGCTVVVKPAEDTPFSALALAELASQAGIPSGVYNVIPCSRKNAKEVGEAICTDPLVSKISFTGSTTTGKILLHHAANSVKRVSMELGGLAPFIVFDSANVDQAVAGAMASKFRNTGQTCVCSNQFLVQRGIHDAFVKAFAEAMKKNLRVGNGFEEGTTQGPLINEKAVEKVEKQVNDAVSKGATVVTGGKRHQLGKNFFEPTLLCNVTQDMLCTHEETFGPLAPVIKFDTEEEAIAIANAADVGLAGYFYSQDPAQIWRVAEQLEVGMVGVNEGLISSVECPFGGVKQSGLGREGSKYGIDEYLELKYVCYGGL
As to the kind of experiment: product inhibition, NADH […], replots of slopes and intercepts. It is filed as biochemical.

For series [2], the target named is T1, hSSADH (human succinic semialdehyde dehydrogenase). As to the kind of experiment: intrinsic fluorescence quenching (ex […] nm, em […] nm), hyperbolic fit. It is filed as binding.
The target in series [3] is T2, hSSADH (human succinic semialdehyde dehydrogenase) (Homo sapiens, UniProt P51649, E306Q).
T2 construct: gene ALDH5A1; purified recombinant homotetramer, expressed and purified as in Didiasova et al. 2024
T2 sequence (P51649 48-535 E306Q): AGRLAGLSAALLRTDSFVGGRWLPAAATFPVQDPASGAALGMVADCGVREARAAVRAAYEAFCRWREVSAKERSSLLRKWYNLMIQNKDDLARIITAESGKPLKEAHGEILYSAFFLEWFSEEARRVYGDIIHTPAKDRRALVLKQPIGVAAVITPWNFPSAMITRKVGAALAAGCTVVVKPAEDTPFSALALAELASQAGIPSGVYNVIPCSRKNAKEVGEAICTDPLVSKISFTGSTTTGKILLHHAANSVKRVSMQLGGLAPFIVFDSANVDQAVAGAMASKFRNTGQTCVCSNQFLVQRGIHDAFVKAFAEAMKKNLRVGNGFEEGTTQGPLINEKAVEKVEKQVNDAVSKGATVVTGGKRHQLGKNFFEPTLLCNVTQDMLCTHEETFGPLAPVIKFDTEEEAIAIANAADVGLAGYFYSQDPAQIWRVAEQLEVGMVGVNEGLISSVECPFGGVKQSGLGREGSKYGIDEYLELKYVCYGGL
The series is described as above. It is filed as binding. As to conditions: read-out: K DNAD+.

Series [4] concerns the target T3, hSSADH (human succinic semialdehyde dehydrogenase) (Homo sapiens, UniProt P51649, K214A).
T3 construct: gene ALDH5A1; purified recombinant homotetramer, expressed and purified as in Didiasova et al. 2024
T3 sequence (P51649 48-535 K214A): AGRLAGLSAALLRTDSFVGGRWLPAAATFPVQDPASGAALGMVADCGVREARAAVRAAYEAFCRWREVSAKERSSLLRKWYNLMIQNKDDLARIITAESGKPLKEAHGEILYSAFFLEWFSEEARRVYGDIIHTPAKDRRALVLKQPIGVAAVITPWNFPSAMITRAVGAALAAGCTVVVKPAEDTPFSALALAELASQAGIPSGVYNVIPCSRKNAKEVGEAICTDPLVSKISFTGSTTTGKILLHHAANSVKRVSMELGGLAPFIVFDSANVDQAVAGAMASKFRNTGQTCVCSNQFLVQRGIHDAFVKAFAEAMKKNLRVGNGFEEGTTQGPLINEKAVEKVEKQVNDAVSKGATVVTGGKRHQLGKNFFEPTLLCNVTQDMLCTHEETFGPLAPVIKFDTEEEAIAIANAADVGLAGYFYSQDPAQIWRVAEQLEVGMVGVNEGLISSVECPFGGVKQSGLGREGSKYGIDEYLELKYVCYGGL
Described as above. It is filed as binding. As to conditions: read-out: K DNAD+.

The target in series [5] is T1, hSSADH (human succinic semialdehyde dehydrogenase). As to the kind of experiment: initial rates, NADH fluorescence (ex […], em […] nm), global fit to Equation ([…]). It is filed as biochemical. As to conditions: partial non-competitive substrate inhibition, co-substrate NAD+, pH 8, potassium phosphate.
Substrate in series [6]: NC(=O)c1ccc[n+]([C@@H]2O[C@H](COP(=O)([O-])OP(=O)(O)OC[C@H]3O[C@@H](n4cnc5c(N)ncnc54)[C@H](O)[C@@H]3O)[C@@H](O)[C@H]2O)c1
As to the kind of experiment: purified protein. It is filed as biochemical, Homo sapiens. As to conditions: co-substrate SSA, pH 8, 100 mM potassium phosphate, 14°C, ordered bi-bi, partial substrate inhibition fit, varied: cofactor.

Substrate in series [7]: O=CCCC(=O)O
As to the kind of experiment: purified protein. It is filed as biochemical, Homo sapiens. As to conditions: co-substrate NAD+, pH 8, 100 mM potassium phosphate, 14°C, ordered bi-bi, partial substrate inhibition fit.

Series [8] concerns the molecule itself. As to the kind of experiment: not stated; purified recombinant hSSADH; the experiment on the oligomeric state is in Data S1 (not shown).

In the case of `NC(=O)C1=CN([C@@H]2O[C@H](COP(=O)(O)OP(=O)(O)OC[C@H]3O[C@@H](n4cnc5c(N)ncnc54)[C@H](O)[C@@H]3O)[C@@H](O)[C@H]2O)C=CC1` [NADH], the Ki (usually a measure of affinity in units of concentration, obtained from inhibition or displacement) in series [1] came to 15 ± 2 µM.

`NC(=O)c1ccc[n+]([C@@H]2O[C@H](COP(=O)([O-])OP(=O)(O)OC[C@H]3O[C@@H](n4cnc5c(N)ncnc54)[C@H](O)[C@@H]3O)[C@@H](O)[C@H]2O)c1` [NAD^+]: the Kd in series [2] was 4.5 ± 0.8 µM; in series [3] it was 4.3 ± 0.4 µM; in series [4], 2500 ± 200 nM.

Take `O=CCCC(=O)O` [SSA]: the “From Equation (5) (14°C)” value in series [5] stood at 13 ± 3 µM.

B1: hSSADH (human succinic semialdehyde dehydrogenase) (Homo sapiens) (protein)
chain: AGRLAGLSAALLRTDSFVGGRWLPAAATFPVQDPASGAALGMVADCGVREARAAVRAAYEAFCRWREVSAKERSSLLRKWYNLMIQNKDDLARIITAESGKPLKEAHGEILYSAFFLEWFSEEARRVYGDIIHTPAKDRRALVLKQPIGVAAVITPWNFPSAMITRKVGAALAAGCTVVVKPAEDTPFSALALAELASQAGIPSGVYNVIPCSRKNAKEVGEAICTDPLVSKISFTGSTTTGKILLHHAANSVKRVSMELGGLAPFIVFDSANVDQAVAGAMASKFRNTGQTCVCSNQFLVQRGIHDAFVKAFAEAMKKNLRVGNGFEEGTTQGPLINEKAVEKVEKQVNDAVSKGATVVTGGKRHQLGKNFFEPTLLCNVTQDMLCTHEETFGPLAPVIKFDTEEEAIAIANAADVGLAGYFYSQDPAQIWRVAEQLEVGMVGVNEGLISSVECPFGGVKQSGLGREGSKYGIDEYLELKYVCYGGL
notes: purified recombinant homotetramer, expressed and purified as in Didiasova et al. 2024
Regarding B1, the Km (as a rule, the substrate concentration at which the rate is half of its maximum) stood at 31 ± 5 µM in series [6] and 1.2 ± 0.2 µM in series [7]. The kcat in series [6] and in series [7] was 26 ± 2 s⁻¹ each time.

B2: Human succinic semialdehyde dehydrogenase (enzyme)
chain: GRLAGLSAALLRTDSFVGGRWLPAAATFPVQDPASGAALGMVADCGVREARAAVRAAYEAFCRWREVSAKERSSLLRKWYNLMIQNKDDLARIITAESGKPLKEAHGEILYSAFFLEWFSEEARRVYGDIIHTPAKDRRALVLKQPIGVAAVITPWNFPSAMITRKVGAALAAGCTVVVKPAEDTPFSALALAELASQAGIPSGVYNVIPCSRKNAKEVGEAICTDPLVSKISFTGSTTTGKILLHHAANSVKRVSMELGGLAPFIVFDSANVDQAVAGAMASKFRNTGQTCVCSNQFLVQRGIHDAFVKAFAEAMKKNLRVGNGFEEGTTQGPLINEKAVEKVEKQVNDAVSKGATVVTGGKRHQLGKNFFEPTLLCNVTQDMLCTHEETFGPLAPVIKFDTEEEAIAIANAADVGLAGYFYSQDPAQIWRVAEQLEVGMVGVNEGLISSVECPFGGVKQSGLGREGSKYGIDEYLELKYVCYGGL
notes: Human succinic semialdehyde dehydrogenase (EC 1.2.1.24), gene ALDH5A1; this is surmised; also called hSSADH; WT hSSADH; source: recombinant, expressed and purified as described (Didiasova et al. 2024)
As to B2, the stoichiometry N – broadly, the number of molecules, sites or subunits per partner or assembly – in series [8] was found to be 4.
